Test results taken from patent publication US8778953B2, “Inhibitors of P38 map kinase” (Chroma Therapeutics Ltd., priority 2008, dated 2014).
Where two headings read alike, the source gives them in different places.

Key:
p38 MAP Kinase a = biological target: T1, p38 MAP Kinase a (Homo sapiens, UniProt Q16539); assay: p38 MAP Kinase activity, radiometric filter-binding assay (Upstate); format: biochemical; details: IC50 range; read-out: Inhibitor activity versus p38 MAPKa
T1 construct: purchased Upstate (Dundee UK)
Protocol: The ability of compounds to inhibit p38 MAP a Kinase activity was measured in an assay performed by Upstate (Dundee UK). In a final reaction volume of 25 μL, p38 MAP Kinase a (5-10 mU) is incubated with 25 mM Tris pH 7.5, 0.002 mMEGTA, 0.33 mg/mL myelin basic protein, 10 mM MgAcetate and [g-33p-ATP] (specific activity approx. 500 cpm/pmol, concentration as required). The reaction is initiated by the addition of the MgATP mix. After incubation for 40 minutes at room temperature, the reaction is stopped by the addition of 5 μL of a 3% phosphoric acid solution. 10 μL of the reaction is then spotted onto a P30 filtermat and washed three times for 5 minutes in 75 mM phosphoric acid and once in methanol prior to drying and scintillation counting.
Duplicate data points are generated from a 1/3 log dilution series of a stock solution in DMSO. Nine dilutions steps are made from a top concentration of 10 μM and a ‘no compound’ blank is included. The standard radiometric filter-binding assay is performed at an ATP concentration at, or close to, the Km. Data from scintillation counts are collected and subjected to free-fit analysis by Prism software. From the curve generated, the concentration giving 50% inhibition is determined and reported.

[1] = system: human whole blood TNFα release; assay: LPS-stimulation of human whole blood, TNF-α release (ELISA); format: cell-based; details: LPS-stimulated human whole blood, IC50 range; read-out: Inhibitor activity versus human whole blood TNFα release
Protocol: Whole blood was taken by venous puncture using heparinised vacutainers (Becton Dickinson) and diluted in an equal volume of RPMI1640 tissue culture media (Sigma). 100 μl was plated in V-bottomed 96 well tissue culture treated plates. 2 hours after the addition of the inhibitor in 100 μl of RPMI1640 media, the blood was stimulated with LPS (E coli strain 005:B5, Sigma) at a final concentration of 100 ng/ml and incubated at 37° C. in 5% CO2 for 6 hours. TNF-α levels were measured from cell-free supernatants by sandwich ELISA (R&D Systems #QTA00B).

THP-1 TNFα release = assay: LPS-stimulation of THP-1 cells, TNF-α release (ELISA); format: cell-based; details: Homo sapiens; LPS-stimulated THP-1 cells, IC50 range; read-out: Inhibitor activity versus THP-1 TNFα release
Protocol: THP-1 cells were plated in 100 μl at a density of 4×10^4 cells/well in V-bottomed 96 well tissue culture treated plates and incubated at 37° C. in 5% CO2 for 16 hours. 2 hours after the addition of the inhibitor in 100 μl of tissue culture media, the cells were stimulated with LPS (E. coli strain 005:B5, Sigma) at a final concentration of 1 μg/ml and incubated at 37° C. in 5% CO2 for 6 hours. TNF-α levels were measured from cell-free supernatants by sandwich ELISA (R&D Systems #QTA00B).

U937 cells = assay: Cell accumulation of the acid in U937 cells; format: cell-based; details: U937 monocytic versus non-monocytic cell line
[2] = system: phosphorylation of MAPKAP-2 in HUT 78 cells; assay: p38 MAP kinase cellular assay: inhibition of phosphorylation of MAPKAP-2 in HUT 78 cells; format: cell-based; details: for Ratio IC50s in HUT 78 to U937 cells: HUT 78 IC50 / U937 IC50; for IC50: Homo sapiens, HuT78, Table 3, HUT 78 non-monocytic cell line
Protocol: (§1) U937 or HUT78 cells were plated in RPMI 1640, and were incubated at 37° C., 5% CO2 for 18 hours. 10 mM stocks of compounds were diluted media/0.1% DMSO to give a log or semi-log dilution series. The wells for ‘no treatment’ and ‘anisomycin’ were treated with 0.1% DMSO only. The cells were incubated at 37° C., 5% CO2 for a further 4 hours. Anisomycin was added to all wells except ‘no treatment’ at a final concentration of 10 μM. The cells were incubated at 37° C., 5% CO2 for 30 minutes before harvest. Plates were stood on ice whilst harvesting, and all following steps were carried out at 4° C. The cells were pelleted at 1000 rpm for 10 minutes at 4° C., the media aspirated, and the pellet washed with cold PBS. The pellets were lysed in 120 μl of SDS lysis buffer (62.5 mM Tris, pH 6.8, 2% SDS, 10% glycerol, 50 mM DTT, with protease inhibitors and phosphatase inhibitors added according to the manufacturer's recommendations). After 30 minutes on ice, the samples were sonicated for 5 seconds before centrifugation at 13,000 rpm 4° C. for 10 minutes to remove cell debris. 10 μl of the resulting gel samples were loaded per lane on NOVEX 4-12% Bis-Tris MOPS gels. Membranes from western transfer of gels were blotted with anti-phospho MAPKAP2, anti-phospho HSP27 and anti GAPDH according to the manufacturer's instructions. Signal was visualised using HRP-linked anti-rabbit or anti-mouse antibodies, ECL reagent and ECL film. IC50 values for the various compounds were visualised from the resulting photographic images, using both band-shift and signal intensity.

[3] = system: phosphorylation of MAPKAP-2 in U937 cells; assay: p38 MAP kinase cellular assay: inhibition of phosphorylation of MAPKAP-2 in U937 cells; format: cell-based; details: for IC50: Homo sapiens, U-937; for Ratio cell IC50s to enzyme IC50: U937 cell IC50 / P38 enzyme IC50
Protocol: as §1

[4] = Table 2, U937 cells, read-out: Inhibition of phosphorylation of MAPKAP-2 in U937 cells (IC50)
[5] = Table 3, U937 monocyte cell line, read-out: Inhibition of phosphorylation of MAPKAP-2 in U937 cells (IC50, nM) (monocyte cell line)

T1 sequence (Q16539 whole entry): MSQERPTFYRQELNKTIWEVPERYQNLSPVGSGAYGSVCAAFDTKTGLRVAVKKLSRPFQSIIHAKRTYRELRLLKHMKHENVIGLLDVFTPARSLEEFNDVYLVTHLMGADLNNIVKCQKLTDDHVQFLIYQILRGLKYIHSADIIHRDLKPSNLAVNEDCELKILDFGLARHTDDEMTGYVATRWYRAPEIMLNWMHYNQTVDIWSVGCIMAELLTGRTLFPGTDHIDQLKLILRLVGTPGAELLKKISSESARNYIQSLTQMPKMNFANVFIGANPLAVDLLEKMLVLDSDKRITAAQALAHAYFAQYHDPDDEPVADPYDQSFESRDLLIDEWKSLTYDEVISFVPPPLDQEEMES

Row | IC50 (p38 MAP Kinase a) | IC50 [1] | IC50 (THP-1 TNFα release) | SMILES | other results
1 | 100 to 1000 nM |  |  | Nc1c(C(=O)c2ccc(F)cc2F)ccc(=O)n1-c1ccc(CCNC2(C(=O)O)CCCC2)cc1 [Example 15, 1-[(2-{4-[6-amino-5-(2,4-difluorobenzoyl)-2-oxopyridin-1(2H)-yl]phenyl}ethyl)amino]cyclopentanecarboxylic acid] | 
2 | < 100 nM | > 1000 nM | < 100 nM | CC(C)(C)OC(=O)C(C)(C)NCCCOc1cc(F)c(-n2c(N)c(C(=O)c3ccc(F)cc3F)ccc2=O)c(F)c1 [Example 10, tert-butyl N-(3-{4-[6-amino-5-(2,4-difluorobenzoyl)-2-oxopyridin-1(2H)-yl]-3,5-difluorophenoxy}propyl)-2-methylalaninate] | 
3 | < 100 nM | 100 to 1000 nM | < 100 nM | CC(C)(NCCc1ccc(-n2c(N)c(C(=O)c3ccc(F)cc3F)ccc2=O)cc1)C(=O)OC1CCCC1 [Example 1, Cyclopentyl N-(2-{4-[6-amino-5-(2,4-difluorobenzoyl)-2-oxopyridin-1(2H)-yl]phenyl}ethyl)-2-methylalaninate] | Accumulation of the acid in cells (in words) (U937 cells): only accumulates in the monocytic cell line; Ratio IC50s in HUT 78 to U937 cells [2]: 100; IC50 [2]: 1000 nM; IC50 [3, 4]: 10 nM; IC50 [3, 5]: 10 nM; Ratio cell IC50s to enzyme IC50 [3]: 0.2; Potency in cells relative to the parent compound lacking the esterase motif ([3]; U937 cells): 30 times
4 | < 100 nM | > 1000 nM | 100 to 1000 nM | CC(C)(NC(=O)Cc1ccc(-n2c(N)c(C(=O)c3ccc(F)cc3F)ccc2=O)cc1)C(=O)OC1CCCC1 [Example 3, Cyclopentyl N-({4-[6-amino-5-(2,4-difluorobenzoyl)-2-oxopyridin-1(2H)-yl]phenyl}acetyl)-2-methylalaninate] | 
5 | 100 to 1000 nM |  |  | CC(C)(NC(=O)Cc1ccc(-n2c(N)c(C(=O)c3ccc(F)cc3F)ccc2=O)cc1)C(=O)O [Example 13] | 
6 | < 100 nM |  |  | CC[C@](C)(NCCc1ccc(-n2c(N)c(C(=O)c3ccc(F)cc3F)ccc2=O)cc1)C(=O)O [Example 14, N-(2-{4-[6-amino-5-(2,4-difluorobenzoyl)-2-oxopyridin-1(2H)-yl]phenyl}ethyl)-L-isovaline] | 
7 | < 100 nM | > 1000 nM | < 100 nM | Nc1c(C(=O)c2ccc(F)cc2F)ccc(=O)n1-c1ccc(CCNC2(C(=O)OC3CCCC3)CCCC2)cc1 [Example 4, Cyclopentyl 1-[(2-{4-[6-amino-5-(2,4-difluorobenzoyl)-2-oxopyridin-1(2H)-yl]phenyl}ethyl)amino]cyclopentanecarboxylate] | 
8 |  |  |  | Nc1c(C(=O)c2ccc(F)cc2F)ccc(=O)n1-c1ccccc1 [Parent Compound I, reference compound] | Ratio IC50s in HUT 78 to U937 cells [2]: 1.5; Ratio IC50s in HUT 78 to U937 cells ([2]; listed as compound I): equipotent; IC50 [2]: 450 nM; IC50 [3, 4]: 300 nM; IC50 [3, 5]: 300 nM; Ratio cell IC50s to enzyme IC50 [3]: 6
9 |  | > 1000 nM | < 100 nM | CC(C)(NCCc1ccc(-n2c(N)c(C(=O)c3ccc(F)cc3F)ccc2=O)cc1)C(=O)OC1CC2CCC1C2 (centres unmarked) [Example 8, bicyclo[2.2.1]hept-2-yl N-(2-{4-[6-amino-5-(2,4-difluorobenzoyl)-2-oxopyridin-1(2H)-yl]phenyl}ethyl)-2-methylalaninate] | 
10 | < 100 nM |  |  | CC(C)(NCCc1ccc(-n2c(N)c(C(=O)c3ccc(F)cc3F)ccc2=O)cc1)C(=O)O [Example 11, N-(2-{4-[6-amino-5-(2,4-difluorobenzoyl)-2-oxopyridin-1(2H)yl]phenyl}ethyl)-2-methylalanine] | 
11 | < 100 nM |  |  | CC(C)(NCCCOc1cc(F)c(-n2c(N)c(C(=O)c3ccc(F)cc3F)ccc2=O)c(F)c1)C(=O)O [Example 16, N-(3-{4-[6-amino-5-(2,4-difluorobenzoyl)-2-oxopyridin-1(2H)-yl]-3,5-difluorophenoxy}propyl)-2-methylalanine] | 
12 | < 100 nM |  |  | CC(C)(NCCc1cc(F)c(-n2c(N)c(C(=O)c3ccc(F)cc3F)ccc2=O)c(F)c1)C(=O)O [Example 12, N-(2-{4-[6-amino-5-(2,4-difluorobenzoyl)-2-oxopyridin-1(2H)-yl]-3,5-difluorophenyl}ethyl)-2-methylalanine] | 
13 | < 100 nM | < 100 nM | < 100 nM | CC(C)(NCCc1cc(F)c(-n2c(N)c(C(=O)c3ccc(F)cc3F)ccc2=O)c(F)c1)C(=O)OC1CCCC1 [Example 2, Cyclopentyl N-(2-{4-[6-amino-5-(2,4-difluorobenzoyl)-2-oxopyridin-1(2H)-yl]-3,5-difluorophenyl}ethyl)-2-methylalaninate] | 
14 | 100 to 1000 nM | > 1000 nM | < 100 nM | CC(C)(NCCc1ccc(-n2c(N)c(C(=O)c3ccc(F)cc3F)ccc2=O)cc1)C(=O)OC1Cc2ccccc2C1 [Example 7, 2,3-dihydro-1H-inden-2-yl N-(2-{4-[6-amino-5-(2,4-difluorobenzoyl)-2-oxopyridin-1(2H)-yl]phenyl}ethyl)-2-methylalaninate] | 
15 | 100 to 1000 nM |  | 100 to 1000 nM | CC[C@](C)(NCCc1ccc(-n2c(N)c(C(=O)c3ccc(F)cc3F)ccc2=O)cc1)C(=O)OC(C)(C)C [Example 6, tert-butyl N-(2-{4-[6-amino-5-(2,4-difluorobenzoyl)-2-oxopyridin-1(2H)-yl]phenyl}ethyl)-L-isovalinate] | 
16 | < 100 nM | 100 to 1000 nM | < 100 nM | CC(C)(NCCCOc1cc(F)c(-n2c(N)c(C(=O)c3ccc(F)cc3F)ccc2=O)c(F)c1)C(=O)OC1CCCC1 [Example 9, Cyclopentyl N-(3-{4-[6-amino-5-(2,4-difluorobenzoyl)-2-oxopyridin-1(2H)-yl]-3,5-difluorophenoxy}propyl)-2-methylalaninate] | 
17 | 100 to 1000 nM | > 1000 nM | < 100 nM | CC[C@](C)(NCCc1ccc(-n2c(N)c(C(=O)c3ccc(F)cc3F)ccc2=O)cc1)C(=O)OC1CCCC1 [Example 5, Cyclopentyl N-(2-{4-[6-amino-5-(2,4-difluorobenzoyl)-2-oxopyridin-1(2H)-yl]phenyl}ethyl)-L-isovalinate] | 
